# Patent EP0560232A1, “Novel 7-aminolabdanes, a process for their preparation and their use as pharmaceutical agents” (HOECHST AKTIENGESELLSCHAFT, priority 1992, dated 1993)
# Columns and labels:
# Hypovolemic rats = assay: Blood pressure lowering activity in hypovolemic rats; format: in vivo; details: for Blood pressure (mm Hg) Initial: before drug
# Procedure: Hypovolemic rats were used for this activity. Hypovolemic rats were prepared by the administration of 100 mg/kg furosemide intra peritoneally 1 hour prior to the actual experiment. After administering furosemide the rats were anesthesised with 1.5 g/kg urethane given i.p. The right carotid artery was cannulated and blood pressure was mentioned on a physiological recorder by connecting the carotial cannula to a pressure transducer. The left jugular vein was cannulated for i.v. administration of test substances - intra duodenal (i.d.) administration is made by exposing a portion of the duodenum through a small incision made in the abdomen below the sternum. Blood pressure was monitored for 10 minutes in case of i.v. administration and for 90 to 120 minutes when the drug was administered by the i.d. route.
# Isolated Rat Portal Vein = assay: Potassium channel opening activity, isolated rat portal vein model (KCl-induced contractions); details: Dose 10^-6 Mol, 5 min incubation, n=5, mean + SEM, vehicle D.W. or DMSO; for Percent Inhibition Activity KCl20 mM: reduction of KCl 20 mM induced contraction; for Percent Inhibition Activity KCl80 mM: reduction of KCl 80 mM induced contraction
# Procedure: Potassium channel opening activity: - Isolated Rat Portal Vein model.
# Normal male albino rats of the Charles Foster strain of weight range 200 to 250 g were used.
# After sacrificing the animal, abdomen was opened and portal vein was isolated and mounted in an organ bath containing Kerb's solution. The bath was maintained at 37°C and aerated with 95 vol.% oxygen and 5 vol.% carbon dioxide gas mixture. The tissue was kept under 0.5 to 1 g tension and allowed to stabilise for about 30 minutes. KCl₂₀ and KCl₈₀ mM induced cumulative concentrations were measured-through Hugo Sachs Force displacement transducer (K-30) and recorded on 4 channel digital recorder. After taking 2 control responses, the tissue was incubated with test substance for 5 minutes and dose response was repeated. The percent reduction in KCl₂₀ and KCl₈₀ mM induced contractions were calculated from the control values. Standard potassium channel opener selectively blocks the KCl₂₀ induced contractions without affecting the KCl₈₀ mM induced responses. […] The test compounds were administered in a volume of 0.2 ml per concentration. All results are expressed as mean + SEM.
SMILES,Blood pressure % change (Hypovolemic rats; 10 mg/kg i.v.) [%],Blood pressure (mm Hg) Post drug (Hypovolemic rats; 10 mg/kg i.v.) [mm Hg],Blood pressure duration (Hypovolemic rats; 10 mg/kg i.v.) [min],Blood pressure (mm Hg) Initial (Hypovolemic rats; group dosed 10 mg/kg i.v.) [mm Hg],Percent Inhibition Activity KCl20 mM (Isolated Rat Portal Vein),Percent Inhibition Activity KCl80 mM (Isolated Rat Portal Vein),Blood pressure % change (Hypovolemic rats; 30 mg/kg i.d.) [%],Blood pressure (mm Hg) Post drug (Hypovolemic rats; 30 mg/kg i.d.) [mm Hg],Blood pressure duration (Hypovolemic rats; 30 mg/kg i.d.) [min],Blood pressure (mm Hg) Initial (Hypovolemic rats; group dosed 30 mg/kg i.d.) [mm Hg]
"C=C[C@@]1(C)CC(=O)[C@H]2[C@](C)(O1)[C@H](N)C=C1C(C)(C)CCC[C@@]12C [(α)NH2, 7α-Amino-8,13-epoxy-labd-5,14-dien-11-one]",-20.5±3,68±4,5,87±9,57+9%,34+9%,–,–,–,–
"C=C[C@@]1(C)CC(=O)[C@H]2[C@](C)(O1)[C@H](NC(C)=O)C=C1C(C)(C)CCC[C@@]12C [(α)NHCOCH3, 7α-Acetylamino-8,13-epoxy-labd-5,14-dien-11-one]",–,–,–,–,34+10%,5+2%,-15.4±3,80±4,30,94±3
"C=C[C@@]1(C)CC(=O)[C@@]2(O)[C@](C)(O1)[C@@H](N)C=C1C(C)(C)CC[C@H](O)[C@@]12C [(β)NH2, 7β-Amino-1α,9α-dihydroxy-8,13-epoxy-labd-5,14-dien-11-one]",–,38±2,>70,90±10,–,–,–,–,–,–
